Results taken from patent US9375484B2, “Taxane silicate prodrugs and nanoparticles” (REGENTS OF THE UNIVERSITY OF MINNESOTA, priority 2011, dated 2016).
Like-named read-outs stand apart in the source and are kept apart here. Marks after values point to notes of the source that are not given here.

Legend:
[1] = PTX silicate hydrolysis rates by 1H NMR; type: physicochemical; conditions: for krel at C2′ (hydrolysis rate relative to the slowest, 1d) / krel at C7 (hydrolysis rate relative to the slowest, 1d): d6-acetone:D2O:TFA 90:9:1, room temperature; for krel at C2′ (hydrolysis rate relative to the slowest, 1d): 1d = 1.0, ± SD of three trials; for krel at C7 (hydrolysis rate relative to the slowest, 1d): for 2a/2b rate of in situ generated 3a/3b to PTX
Description: A known quantity of a PTX prodrug was dissolved in 900 μL of d6-acetone. To this homogenous solution, 100 μL of a 9:1 solution of D2O: trifluoroacetic acid (TFA) was added, and the solution was vigorously mixed. The ^1H NMR spectra was taken (16 transients) on a 500 MHz Varian instrument at multiple time points over the course of more than three half-lives. The study was conducted at room temperature (rt=22.5° C.±1.0° C.) Upon completion of the study, the 2′ and/or 7 methine resonances were integrated in a baseline-adjusted NMR spectrum using MestRec software. The relative integrations were used to determine the extent of hydrolysis. The data from three replications was plotted on a semi-log scale to determine the kobs of the prodrug that were then converted to the krel data as presented, defining the rate of the most slowly hydrolyzed prodrug (1d) as krel=1.0. Errors are defined as the standard deviation of the three trials.
^1H NMR spectroscopy was used to establish relative hydrolysis rates of compounds 1-3. The compounds were dissolved in a solution of d6-acetone, D2O, and trifluoroacetic acid (TFA) in a 90:9:1 ratio (v/v/v). Resonances of, e.g., H2′ in the reactant silicate vs. product carbinol were monitored.

MDA-MB-231 cells = test: MTT cytotoxicity of PTX silicate prodrugs; type: cell-based, human
Description: MDA-MB-231 and MDA-MB-231 Luciferase positive cells were maintained independently in MEM supplemented with 1% pen/strep and 10% FBS at 37° C. in a humidified incubator. MDA-MB-231 cells were obtained from the American Type Culture Collection. MDA-MB-231 Luc+ cells were obtained from CaliperLS (Hopkinton, Mass., USA). For MTT cytotoxicity studies, MDA-MB-231 cells were seeded at 8,000 cells/well in a 96 well plate in 100 μL MEM with 5% FBS. Paclitaxel, and paclitaxel silicate prodrug stock solutions of 10 mM were prepared in DMSO. Stock solutions were diluted to 2× concentration in MEM with 5% FBS, 100 μL volume, and pipetted into the 96 well plate. Concentration ranges were from 1-10,000 nM. After 48 hours, 30 μL of MTT working reagent was added to cells. Absorbance at 490 nm was monitored on a 96 well plate UV vis detector at 60 minutes. IC50 values were determined by nonlinear regression analysis of log concentration v. response data obtained from the MTT assay. The IC50 was interpolated from the resulting curves using Graphpad Prism v5.1 (Graphpad Software Inc. La Jolla Calif., USA).
Cytotoxicity of the PTX silicate prodrugs 1-3 was examined in the MDA-MB-231 human breast cancer cell line (Table 2).

[2] = test system: Tumor cells (4T1, PANC-1 or MDA-MB-231); test: Cytotoxicity against tumor cells in vitro (MTS assay); type: cell-based; conditions: 72 hours, FIG. 2
Description: Tumor cells (4T1, PANC-1 or MDA-MB-231) were seeded in 96-well plates and allowed to attach. Cells were then treated with paclitaxel (solubilized in growth medium using ethanol), silicate prodrug (2a, solubilized in growth medium using ethanol), silicate prodrug nanoparticles (a 58:42 wt % mixture of the bis-triethyl silicate paclitaxel prodrug 2a and a 5K-10K PEG-PLGA BCP dispersed in growth medium) or copolymer-only (blank, no drug) nanoparticles for 72 hours. Cell viability was then measured using a standard MTS assay kit (Promega).

Orthotopic 4T1 tumors = test: 4T1 tumor growth in mice; type: in vivo, BALB/c mice
Description: Orthotopic 4T1 tumors were grown by injecting ˜1×10^6 tumor cells in the mammary fat pad of BALB/c mice. When the tumors were about 100 mm^3 in volume, the animals were injected with a single dose of paclitaxel dissolved in 1:1 mix of ethanol and cremophor (same formulation as Taxol®), silicate prodrug (2a) dissolved in 1:1 mix of ethanol and cremophor (same formulation as Taxol®), or silicate prodrug nanoparticles dispersed in buffered saline. Untreated animals or those treated with just cremophor/ethanol vehicle were used as controls. […] This study clearly indicates the benefit of formulating paclitaxel in the form of silicate prodrug nanoparticle formulation.

In the case of CCO[Si](OCC)(OCC)O[C@@H](C(=O)O[C@H]1C[C@@]2(O)[C@@H](OC(=O)c3ccccc3)[C@@H]3[C@]4(OC(C)=O)CO[C@@H]4C[C@H](O)[C@@]3(C)C(=O)[C@H](OC(C)=O)C(=C1C)C2(C)C)[C@@H](NC(=O)c1ccccc1)c1ccccc1 [Compound 1a, 2′-O-(triethylorthosilyl)paclitaxel], the “difference of krel values between the extremes 1a and 1d” value ([1]; 1a versus 1d) is reported as greater than 2000 ×, the “krel at C2′ (hydrolysis rate relative to the slowest, 1d)” value [1] is reported as 2200 ± 600 and the “krel of 1a relative to 1b” value ([1]; hydrolysis rates of 1a and 1b called similar) is reported as “ca. 3”. For the same compound, the IC50 (MDA-MB-231 cells; Homo sapiens, MDA-MB-231, 48 h) was 23 nM.
In the case of CCCCCCCCO[Si](OCCCCCCCC)(OCCCCCCCC)OC(C(=O)OC1CC2(O)C(OC(=O)c3ccccc3)C3C4(OC(C)=O)COC4CC(O)C3(C)C(=O)C(OC(C)=O)C(=C1C)C2(C)C)C(NC(=O)c1ccccc1)c1ccccc1 (centres unmarked) [Compound 1b, 2-O-(tri-n-octylorthosilyl)paclitaxel], the “krel at C2′ (hydrolysis rate relative to the slowest, 1d)” value [1] is reported as 710 ± 30 and the IC50 (MDA-MB-231 cells; MDA-MB-231 cells, cell viability measured after 48 h, MTT, read-out: IC50) is reported as 35.6 nM.
With CC(=O)O[C@H]1C(=O)[C@@]2(C)[C@H]([C@H](OC(=O)c3ccccc3)[C@]3(O)C[C@H](OC(=O)[C@H](O[Si](OC(C)C)(OC(C)C)OC(C)C)[C@@H](NC(=O)c4ccccc4)c4ccccc4)C(C)=C1C3(C)C)[C@]1(OC(C)=O)CO[C@@H]1C[C@@H]2O [Compound 1c, 2′-O-(tri-i-propylorthosilyl)paclitaxel] the “krel at C2′ (hydrolysis rate relative to the slowest, 1d)” value [1] was 69 ± 4 and the IC50 (MDA-MB-231 cells; Homo sapiens, MDA-MB-231, 48 h) was 24.5 nM.
With CCO[Si](O[C@@H](C(=O)O[C@H]1C[C@@]2(O)[C@@H](OC(=O)c3ccccc3)[C@@H]3[C@]4(OC(C)=O)CO[C@@H]4C[C@H](O)[C@@]3(C)C(=O)[C@H](OC(C)=O)C(=C1C)C2(C)C)[C@@H](NC(=O)c1ccccc1)c1ccccc1)(OC(C)(C)C)OC(C)(C)C [Compound 1d, 2′-O-(di-t-butylethylorthosilyl)paclitaxel] the “krel at C2′ (hydrolysis rate relative to the slowest, 1d)” value [1] was 1.0 ± 0.1 and the IC50 (MDA-MB-231 cells; Homo sapiens, MDA-MB-231, 48 h) was 8140 nM.
For CCO[Si](OCC)(OCC)O[C@H]1C[C@H]2OC[C@@]2(OC(C)=O)[C@H]2[C@H](OC(=O)c3ccccc3)[C@]3(O)C[C@H](OC(=O)[C@H](O[Si](OCC)(OCC)OCC)[C@@H](NC(=O)c4ccccc4)c4ccccc4)C(C)=C([C@@H](OC(C)=O)C(=O)[C@]12C)C3(C)C [Compound 2a, 2′,7-Di-O-(triethylorthosilyl)paclitaxel], the “krel at C2′ (hydrolysis rate relative to the slowest, 1d)” value [1] was 1800 ± 100, the “krel at C7 (hydrolysis rate relative to the slowest, 1d)” value [1] was 250 ± 10^a and the IC50 (MDA-MB-231 cells; Homo sapiens, MDA-MB-231, 48 h) was 74.4 nM. The “anticancer efficacy (cell viability) compared with paclitaxel” value [2] was “anticancer efficacy similar to the parent compound”.
In the case of CCCCCCCCO[Si](OCCCCCCCC)(OCCCCCCCC)OC(C(=O)OC1CC2(O)C(OC(=O)c3ccccc3)C3C4(OC(C)=O)COC4CC(O[Si](OCCCCCCCC)(OCCCCCCCC)OCCCCCCCC)C3(C)C(=O)C(OC(C)=O)C(=C1C)C2(C)C)C(NC(=O)c1ccccc1)c1ccccc1 (centres unmarked) [Compound 2b, 2′,7-Di-O-(tri-n-octylorthosilyl)paclitaxel], the “krel at C2′ (hydrolysis rate relative to the slowest, 1d)” value [1] is reported as 460 ± 10 and the “krel at C7 (hydrolysis rate relative to the slowest, 1d)” value [1] is reported as 41 ± 3^b.
With CCO[Si](OCC)(OCC)O[C@H]1C[C@H]2OC[C@@]2(OC(C)=O)[C@H]2[C@H](OC(=O)c3ccccc3)[C@]3(O)C[C@H](OC(=O)[C@H](O)[C@@H](NC(=O)c4ccccc4)c4ccccc4)C(C)=C([C@@H](OC(C)=O)C(=O)[C@]12C)C3(C)C [Compound 3a, 7-O-(triethylorthosilyl)paclitaxel] the “krel at C7 (hydrolysis rate relative to the slowest, 1d)” value [1] was 270 ± 10^ and the IC50 (MDA-MB-231 cells; Homo sapiens, MDA-MB-231, 48 h) was 21.4 nM.
In the case of CCCCCCCCO[Si](OCCCCCCCC)(OCCCCCCCC)O[C@H]1C[C@H]2OC[C@@]2(OC(C)=O)[C@H]2[C@H](OC(=O)c3ccccc3)[C@]3(O)C[C@H](OC(=O)[C@H](O)[C@@H](NC(=O)c4ccccc4)c4ccccc4)C(C)=C([C@@H](OC(C)=O)C(=O)[C@]12C)C3(C)C [Compound 3b, 7-O-(tri-n-octylorthosilyl)paclitaxel], the “krel at C7 (hydrolysis rate relative to the slowest, 1d)” value [1] is reported as 55 ± 3^ and the IC50 (MDA-MB-231 cells; Homo sapiens, MDA-MB-231, 48 h) is reported as 540 nM.
In the case of CC(=O)O[C@H]1C(=O)[C@@]2(C)[C@H]([C@H](OC(=O)c3ccccc3)[C@]3(O)C[C@H](OC(=O)[C@H](O)[C@@H](NC(=O)c4ccccc4)c4ccccc4)C(C)=C1C3(C)C)[C@]1(OC(C)=O)CO[C@@H]1C[C@@H]2O [PTX, paclitaxel], the tumor volume (Orthotopic 4T1 tumors; Day 13, single dose, tumors about 100 mm^3 at injection) is reported as 1450±65 mm^3, the “reaction at the site of injection” value (Orthotopic 4T1 tumors; single injection, BALB/c mice) is reported as “severe tissue irritation and necrosis at the site of injection” and the IC50 (MDA-MB-231 cells; Homo sapiens, MDA-MB-231 cells, cell viability measured after 48 h, MTT, read-out: IC50) is reported as 23.6 nM.
